#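 In this assay, cells in 96-well plates receive the compound at five concentrations for 48 hours. Endpoints are linearly interpolated between the surrounding concentrations. GI50: concentration for 50% inhibition of growth. TGI denotes the concentration required for complete inhibition of growth.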
# What was measured:
# Experiment in all cases: NCI tumour cell line growth inhibition, 48 h
# [1] = test system: SK-MEL-2 melanoma
# [2] = test system: HT29 colon
# [3] = test system: MDA-MB-435
# [4] = test system: HCT-15 colon
# [5] = test system: UO-31 renal
# [6] = test system: SN12C renal
# [7] = test system: HL-60(TB) leukemia
# [8] = test system: 786-0 renal
# [9] = test system: SNB-75 CNS
# [10] = test system: HOP-92 NSCLC
# [11] = test system: OVCAR-5 ovarian
# [12] = test system: HCT-116 colon
# [13] = test system: U251 CNS
# [14] = test system: COLO 205 colon
# [15] = test system: NCI-H23 lung
# [16] = test system: HOP-62 NSCLC
# [17] = test system: PC-3 prostate
# [18] = test system: CAKI-1 renal
# [19] = test system: BT-549 breast
# [20] = test system: K-562 leukemia
# [21] = test system: HS 578T breast
# [22] = test system: UACC-257 melanoma
# [23] = test system: SNB-19 CNS
# [24] = test system: SF-268 CNS
# [25] = test system: KM12 colon
# [26] = test system: SK-MEL-28 melanoma
# [27] = test system: NCI-H226 lung
# [28] = test system: HCC-2998 colon
# [29] = test system: MCF7 breast
# [30] = test system: SK-OV-3 ovarian
# [31] = test system: T-47D breast
# [32] = test system: NCI-H522 lung
# [33] = test system: A498 renal
# [34] = test system: SK-MEL-5 melanoma
# [35] = test system: MALME-3M melanoma
# [36] = test system: OVCAR-8 ovarian
# [37] = test system: IGROV1 ovarian
# [38] = test system: M14 melanoma
# [39] = test system: UACC-62 melanoma
# [40] = test system: SF-539 CNS
# [41] = test system: OVCAR-3 ovarian
# [42] = test system: SR leukemia
# [43] = test system: A549 NSCLC
# [44] = test system: NCI-H460 lung
# [45] = test system: SW-620 colon
# [46] = test system: ACHN renal
# [47] = test system: MOLT-4 leukemia
# [48] = test system: RXF 393 renal
# [49] = test system: OVCAR-4 ovarian
# [50] = test system: TK-10 renal
# [51] = test system: MDA-MB-231 breast
# [52] = test system: CCRF-CEM leukemia
# [53] = test system: NCI/ADR-RES ovarian
# [54] = test system: DU-145 prostate
# [55] = test system: LOX IMVI melanoma
# [56] = test system: RPMI-8226 leukemia
smiles,measurement,setting,value
CCOC(=O)N1C/C(=C/c2ccc(F)cc2)C(=O)/C(=C/c2ccc(F)cc2)C1,GI50,[1],2880 nM
same,TGI,[1],6390 nM
same,GI50,[2],363 nM
same,TGI,[2],1370 nM
same,GI50,[3],1220 nM
same,TGI,[3],3730 nM
same,GI50,[4],1160 nM
same,TGI,[4],3020 nM
same,GI50,[5],1530 nM
same,TGI,[5],3070 nM
same,GI50,[6],1590 nM
same,TGI,[6],3160 nM
same,GI50,[7],3180 nM
same,TGI,[7],10600 nM
same,GI50,[8],1690 nM
same,TGI,[8],3620 nM
same,GI50,[9],2600 nM
same,TGI,[9],10700 nM
same,GI50,[10],1650 nM
same,TGI,[10],4640 nM
same,GI50,[11],1890 nM
same,TGI,[11],3830 nM
same,GI50,[12],205 nM
same,TGI,[12],397 nM
same,GI50,[13],1190 nM
same,TGI,[13],2550 nM
same,GI50,[14],1920 nM
same,TGI,[14],3540 nM
same,GI50,[15],2350 nM
same,TGI,[15],5670 nM
same,GI50,[16],2100 nM
same,TGI,[16],4240 nM
same,GI50,[17],1850 nM
same,TGI,[17],5460 nM
same,GI50,[18],3010 nM
same,TGI,[18],12100 nM
same,GI50,[19],1650 nM
same,TGI,[19],3090 nM
same,GI50,[20],754 nM
same,TGI,[20],> 100000 nM
same,GI50,[21],3130 nM
same,TGI,[21],29000 nM
same,GI50,[22],2860 nM
same,TGI,[22],9650 nM
same,GI50,[23],2080 nM
same,TGI,[23],6310 nM
same,GI50,[24],2200 nM
same,TGI,[24],5520 nM
same,GI50,[25],641 nM
same,TGI,[25],2040 nM
same,GI50,[26],1800 nM
same,TGI,[26],3350 nM
same,GI50,[27],3520 nM
same,TGI,[27],19800 nM
same,GI50,[28],1840 nM
same,TGI,[28],3290 nM
same,GI50,[29],327 nM
same,TGI,[29],1390 nM
same,GI50,[30],2220 nM
same,TGI,[30],4710 nM
same,GI50,[31],2820 nM
same,TGI,[31],7970 nM
same,GI50,[32],1950 nM
same,TGI,[32],3980 nM
same,GI50,[33],2160 nM
same,TGI,[33],5120 nM
same,GI50,[34],1360 nM
same,TGI,[34],2670 nM
same,GI50,[35],2340 nM
same,TGI,[35],5580 nM
same,GI50,[36],2470 nM
same,TGI,[36],10800 nM
same,GI50,[37],2390 nM
same,TGI,[37],6120 nM
same,GI50,[38],2070 nM
same,TGI,[38],4670 nM
same,GI50,[39],1610 nM
same,TGI,[39],3390 nM
same,GI50,[40],1760 nM
same,TGI,[40],3300 nM
same,GI50,[41],1850 nM
same,TGI,[41],3470 nM
same,GI50,[42],341 nM
same,TGI,[42],3610 nM
same,GI50,[43],2640 nM
same,TGI,[43],8650 nM
same,GI50,[44],1960 nM
same,TGI,[44],4560 nM
same,GI50,[45],487 nM
same,TGI,[45],1740 nM
same,GI50,[46],1860 nM
same,TGI,[46],3420 nM
same,GI50,[47],2600 nM
same,TGI,[47],7840 nM
same,GI50,[48],1630 nM
same,TGI,[48],3110 nM
same,GI50,[49],2240 nM
same,TGI,[49],6380 nM
same,GI50,[50],2870 nM
same,TGI,[50],6990 nM
same,GI50,[51],1810 nM
same,TGI,[51],4180 nM
same,GI50,[52],758 nM
same,TGI,[52],5640 nM
same,GI50,[53],3280 nM
same,TGI,[53],21100 nM
same,GI50,[54],3480 nM
same,TGI,[54],10900 nM
same,GI50,[55],327 nM
same,TGI,[55],1100 nM
same,GI50,[56],201 nM
same,TGI,[56],772 nM
